For assay [1], the system named is Kyn levels in BxPC-3 cells. Put plainly: Manual Kyn assay in BxPC-3 cells (p-DMAB detection), incl. hemin competition. It is filed as cell-based. The conditions noted are these: IFN-γ, L-Trp. As for the experimental part:
Mammalian cell lines were maintained at 37°C and 5% CO2 in a humidified atmosphere and sub-cultivated twice a week. All cell lines were tested regularly for mycoplasma contamination and were always free of mycoplasma. BxPC-3 cells (DSMZ#760) were grown in RPMI-1640 medium supplemented with 10% FBS, 2 mM L-glutamine, 1 mM sodium pyruvate, 4.5 g/L glucose, 10 mM HEPES and 1.5 g/L NaHCO3. HeLa cells (DSMZ#57) were cultivated in DMEM supplemented with 10% FBS, 4.5 g/L glucose, 4 mM L-glutamine 1 mM sodium pyruvate, 1% non-essential amino acids, 3.7 g/L NaHCO3. SKOV-3 cells (ATCC#HTB-77) were maintained in modified McCoy’s 5A medium supplemented with 10% FBS, 1.5 mM L-glutamine and 2.2 g/L NaHCO3. […]
For manual testing, BxPC-3, HeLa or SKOV-3 cells (20,000 cells/well, 5,000 cells/well or 6,250 cells/well, respectively) were seeded in 96-well plates (BxPC-3 and HeLa) or 384-well plates (SKOV-3) in medium without phenol red. […]
temperature and centrifuged for 10 min at 1800 x g. Afterwards, an equal volume of freshly prepared 2% (w/v) p-DMAB in glacial acetic acid (Ehrlich reagent) was added prior to measuring the absorbance at 492 nm and 650 nm on the Spark® Multimode Microplate Reader (Tecan, AT).
To determine the Kyn levels, the absorbance of the Kyn-p-DMAB adduct A492 was subtracted by the background absorbance A650 and normalized to the DMSO control. […]

The test system of assay [2] is IDO1 promoter. Put plainly: IDO1 promoter reporter gene assay in HEK293T cells. It is filed as cell-based. The conditions noted are these: IFN-γ, 48 h. As for the experimental part:
GraphPad Prism 9.0 (GraphPad Software, Inc, US) to generate dose-response curves and obtain […]
IDO1 promoter reporter gene assay
HEK293T cells (25,000 cells/well) were reverse-transfected with pXPG-IDO1[16] (4 µg/96-well plate, kindly provided by Gina M. Doody, Leeds, UK) and pRL-TK (300 ng/96-well plate, Promega, US) using Lipofectamine™ 2000 (Invitrogen, USA) pri or to incubation for 24 h. Afterwards, cells were treated with 50 ng/mL IFN-γ and the compounds for 48 h. Luminescence generated by the Fluc reporter and the control reporter Rluc was measured using the Dual-Glo ® Luciferase Assay System (Promega, US) on the Spark® Multimode Microplate Reader (Tecan, AT). To determine the IDO1 promoter activity, Fluc signals were divided by Rluc signals and normalized to the values of the DMSO control. Data analysis was performed using a non-linear regression curve fit and […]
BxPC-3 cells (30,000 cells/well) were seeded in 96-well plates in Trp-free RPMI 1640 medium and incubated for 48 h prior addition of 50 ng/mL IFN-γ. […]
The supernatant was transferred to a new plate, trichloroacetic acid was added to a final concentration of 7% (v/v) and plates were incubated for 15 min at room temperature. Samples were centrifuged for 10 min at 1800 x g and L-Trp was quantified by HPLC-MS/MS using the LTQ Velos Pro and Dionex HPLC (Thermo Fisher Scientific, US). […]

Assay [3] addresses T1, rhIDO1 (holo-IDO1) (Homo sapiens, UniProt P14902).
T1 construct: His; made in house; host or cells: E. coli
Put plainly: nanoDSF thermal denaturation of IDO1. It is filed as binding. As for the experimental part:
11 µM rhIDO1 was incubated with compounds at indicated concentrations for 60 min at 37°C in 50 mM potassium phosphate buffer (16.9 mM K2HPO4, 33.1 mM, KH2PO4, pH 6.5). The thermal protein stability from 20°C to 90°C (1°C/min) was measured by means of the intrinsic tryptophan/tyrosine fluorescence using the Prometheus™ NT.48 (NanoTemper® Technologies, DE). Melting scans, first derivatives of melting scans and melting temperatures were analyzed using PR.ThermControl software (NanoTemper® Technologies, DE). Binding affinities were determined by plotting the melting temperature against the ligand concentration and fitting with a single site ligand binding function using GraphPad Prism 9.0 (GraphPad Software, Inc, US). The isothermal analysis of the nanoDSF data was performed with FoldAffinity[1] with an assumed heat capacity change ΔCp of zero. […]
(Differential scanning fluorimetry follows unfolding on heating by fluorescence.)

The structures appear in SMILES notation. “And” between values parts separate entries of the source, which are not always exact repeats. Equal values may be shown once. Read-outs that look alike come from different tables or passages of the source.

T1 sequence (P14902 whole entry): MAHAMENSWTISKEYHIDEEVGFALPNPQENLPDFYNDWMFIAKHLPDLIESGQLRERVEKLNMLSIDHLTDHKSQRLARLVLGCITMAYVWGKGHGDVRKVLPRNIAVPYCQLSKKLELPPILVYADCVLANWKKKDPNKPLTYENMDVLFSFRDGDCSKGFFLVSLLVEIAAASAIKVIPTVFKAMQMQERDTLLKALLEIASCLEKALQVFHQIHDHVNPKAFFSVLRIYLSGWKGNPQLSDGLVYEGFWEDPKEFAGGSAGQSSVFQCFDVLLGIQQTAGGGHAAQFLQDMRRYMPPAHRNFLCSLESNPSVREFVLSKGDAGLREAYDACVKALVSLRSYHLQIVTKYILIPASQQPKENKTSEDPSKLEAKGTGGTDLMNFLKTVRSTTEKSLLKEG

Consider `CCOC(=O)C1=CC[C@](C(=O)OC)(c2cc3ccccc3n2C)N(S(=O)(=O)c2ccc(C)cc2)[C@@H]1C(=O)OC(C)(C)C` [Compound 3d], for which the “effect of free hemin on potency in the Kyn assay” value in assay [1] (BxPC-3, hemin, 600 nM apoxidole-1, 48 h) is listed as “reduced the potency”. Besides, the “activity in Kyn assay in BxPC-3 cells” value in assay [1] (BxPC-3 cells, 48 h, p-DMAB) was “completely inactive”. In assay [2], the “expression of the Fluc reporter under IDO1 promoter” value is recorded as “did not reduce the expression of the reporter”. The Kd in assay [3] (48 °C, FoldAffinity, first replicate, read-out: KD, 48°C (isothermal analysis, single replicate)) is 11.6 nM; in assay [3] (49 °C, FoldAffinity, read-out: KD, 49°C (isothermal analysis, single replicates)), 24.7 nM and 26 nM; in assay [3] (50 °C, FoldAffinity, read-out: KD, 50°C (isothermal analysis, single replicates)), 48.4 nM and 34.7 nM and 24.8 nM; in assay [3] (51 °C, FoldAffinity, read-out: KD, 51°C (isothermal analysis, single replicates)), 54.4 nM and 41.3 nM and 33.6 nM; in assay [3] (at 49 °C, read-out: KD (isothermal analysis of nanoDSF data)) it was 20.7 ± 0.01 nM; in assay [3] (from Tm vs concentration, mean±SD, n=3, read-out: apparent dissociation constant KD,app) it was 1100 nM and 1090 nM. Also, in assay [3] (holo-IDO1, 60 min at 37 °C), the “shift of melting temperature Tm (nanoDSF)” value was determined as 7.7±0.3 °C. Besides, in assay [3] (holo-IDO1 treated with compound, DMSO 45.7±0.2 °C), the “melting temperature Tm of IDO1 with compound” value was determined as 53.5±0.2 °C.
